Experimental data taken from the supplement of paper PMC11061612.

Columns and labels:
Assay in all cases: combination Emax (second highest fraction inhibited in the dose matrix, 72 h); higher = more inhibition; extreme values may be limits of the assay
[1] = system: NCI-H1793 (Lung Adenocarcinoma)
Method in brief: (§1)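 Cell lines in DMEM/F12 or RPMI with 10% FBS were plated in 1536-well plates, held 24 hours at 37°C, 5% CO2, then given two-drug dose matrices for 72 hours (DMSO typically 0.2%). Viability was read by CellTiter-Glo 2.0 luminescence and scaled as inhibition from 0 (vehicle wells) to 1 (blank wells). Combination Emax is the second-highest inhibition in the matrix; Bliss excess is observed combination effect minus expected EA + EB − EA·EB, EA and EB being single-agent effects.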

[2] = system: NCI-H2369 (Mesothelioma)
Method in brief: as §1

[3] = system: NCI-H1781 (Lung Adenocarcinoma)
Method in brief: as §1

[4] = system: LS-513 (Colorectal Carcinoma)
Method in brief: as §1

[5] = system: SW1990 (Pancreatic Carcinoma)
Method in brief: as §1

[6] = system: G-292-Clone-A141B1 (Osteosarcoma)
Method in brief: as §1

[7] = system: CTV-1 (T-Lymphoblastic Leukemia)
Method in brief: as §1

[8] = system: MDA-MB-157 (Breast Carcinoma)
Method in brief: as §1

[9] = system: SW780 (Bladder Carcinoma)
Method in brief: as §1

[10] = system: MDA-MB-231 (Breast Carcinoma)
Method in brief: as §1

[11] = system: DOV13 (Ovarian Carcinoma)
Method in brief: as §1

[12] = system: OCI-AML2 (Acute Myeloid Leukemia)
Method in brief: as §1

[13] = system: TE-5 (Esophageal Squamous Cell Carcinoma)
Method in brief: as §1

[14] = system: ES7 (Ewing's Sarcoma)
Method in brief: as §1

[15] = system: MFH-ino (Other Solid Carcinomas)
Method in brief: as §1

[16] = system: NCI-H2595 (Mesothelioma)
Method in brief: as §1

[17] = system: COR-L23 (Non-Small Cell Lung Carcinoma)
Method in brief: as §1

[18] = system: DMS-273 (Small Cell Lung Carcinoma)
Method in brief: as §1

[19] = system: NALM-6 (B-Lymphoblastic Leukemia)
Method in brief: as §1

[20] = system: KM-H2 (Hodgkin's Lymphoma)
Method in brief: as §1

SMILES	combination Emax [1]	combination Emax [2]	combination Emax [3]	combination Emax [4]	combination Emax [5]	combination Emax [6]	combination Emax [7]	combination Emax [8]	combination Emax [9]	combination Emax [10]	combination Emax [11]	combination Emax [12]	combination Emax [13]	combination Emax [14]	combination Emax [15]	combination Emax [16]	combination Emax [17]	combination Emax [18]	combination Emax [19]	combination Emax [20]
CN(C)CCCOc1ccc(-c2ccc3ncc4c(c3c2)n(C2CCOCC2)c(=O)n4C)cn1 [AZD0156] + CCN(CCO)CCCOc1ccc2c(Nc3cc(CC(=O)Nc4cccc(F)c4)[nH]n3)ncnc2c1 [AZD2811] (first compound max 1 µM, 7x7, partner max 1 µM)	0.182	0.0791	0.608	0.508	0.0964	0.111	0.234	0.153	0.205	0.206	0.493	0.773	0.1	0.799	0.136	0.108	0.116	0.793	0.766	0.327
Cc1cc2ncnn2cc1Nc1ncc2c(n1)n(C1CCOCC1)c(=O)n2C [AZD7648] + C[C@@H]1COCCN1C2=NC(=NC(=C2)C3(CC3)[S@](=N)(=O)C)C4=C5C=CNC5=NC=C4 [AZD6738] (first compound max 10 µM, 7x7, partner max 10 µM)	0.36	0.25	0.443	0.762	0.471	0.334	0.864	0.881	0.303	0.605	0.838	0.986	0.565	0.766	0.499	0.208	0.577	0.788	0.932	0.774
Cc1c2c(nn1C)CSCc1cc(n(C)n1)CSc1cc(c3ccccc3c1)OCCCc1c(C(=O)O)n(C)c3c-2c(Cl)ccc13 [AZD5991] + CN(C)CCCOc1ccc(-c2ccc3ncc4c(c3c2)n(C2CCOCC2)c(=O)n4C)cn1 [AZD0156] (first compound max 1 µM, 7x7, partner max 1 µM)	0.302	0.208	0.665	0.275	0.241	0.332	0.301	0.69	0.206	0.351	0.324	0.961	0.266	0.726	0.22	0.328	–	0.976	0.408	0.201
C[C@@H]1COCCN1c1cc(C2([S@](C)(=N)=O)CC2)nc(-c2ccnc3[nH]ccc23)n1 [AZD6738] + O=C(c1cc(Cc2n[nH]c(=O)c3ccccc23)ccc1F)N1CCN(C(=O)C2CC2)CC1 [Olaparib] (first compound max 10 µM, 7x7, partner max 10 µM)	0.379	0.133	0.59	0.722	0.471	0.283	0.916	0.85	0.181	0.572	0.915	0.988	0.442	0.962	0.576	0.214	0.42	0.721	0.976	0.785
CCc1c2c(nc3ccc(O)cc13)-c1cc3c(c(=O)n1C2)COC(=O)[C@]3(O)CC [SN-38] + CN(C)CCCOc1ccc(-c2ccc3ncc4c(c3c2)n(C2CCOCC2)c(=O)n4C)cn1 [AZD0156] (first compound max 0.3 µM, 7x7, partner max 1 µM)	0.505	0.32	0.99	0.526	0.525	0.213	1	0.742	0.33	0.658	0.936	1	0.796	1	0.812	0.176	0.686	0.802	1	0.907
C=CCn1c(=O)c2cnc(Nc3ccc(N4CCN(C)CC4)cc3)nc2n1-c1cccc(C(C)(C)O)n1 [AZD1775] + O=C(c1cc(Cc2n[nH]c(=O)c3ccccc23)ccc1F)N1CCN(C(=O)C2CC2)CC1 [Olaparib] (first compound max 1 µM, partner max 10 µM)	0.379	0.258	0.538	0.827	0.404	0.294	0.977	0.723	0.209	0.582	0.802	0.992	0.411	–	0.413	0.179	0.224	0.549	0.94	0.961
CC(=O)c1c(C)c2cnc(Nc3ccc(N4CCNCC4)cn3)nc2n(C2CCCC2)c1=O [Palbociclib] + CN(CC[C@H](CSC1=CC=CC=C1)NC2=C(C=C(C=C2)S(=O)(=O)NC(=O)C3=CC=C(C=C3)N4CCC(CC4)[C@H](C5=CC=CC=C5C6=CC=C(C=C6)Cl)O)S(=O)(=O)C(F)(F)F)CCO [AZD4320] (first compound max 10 µM, 7x7, partner max 1 µM)	0.337	0.259	0.476	–	–	–	0.94	–	0.395	–	–	–	–	–	–	–	0.298	0.306	–	0.608
C[C@@H](c1ccc2nccn2c1)n1nnc2ncc(-c3cnn(C)c3)nc21 [Savolitinib] + CN(CC[C@H](CSC1=CC=CC=C1)NC2=C(C=C(C=C2)S(=O)(=O)NC(=O)C3=CC=C(C=C3)N4CCC(CC4)[C@H](C5=CC=CC=C5C6=CC=C(C=C6)Cl)O)S(=O)(=O)C(F)(F)F)CCO [AZD4320] (first compound max 1 µM, 7x7, partner max 1 µM)	0.168	0.114	0.287	–	–	–	0.455	–	0.393	–	–	–	–	–	–	–	0.184	0.185	–	0.146
CCc1c2c(nc3ccc(O)cc13)-c1cc3c(c(=O)n1C2)COC(=O)[C@]3(O)CC [SN-38] + O=C(c1cc(Cc2n[nH]c(=O)c3ccccc23)ccc1F)N1CCN(C(=O)C2CC2)CC1 [Olaparib] (first compound max 0.3 µM, 7x7, partner max 10 µM)	–	0.265	1	0.665	0.419	0.179	1	0.725	–	0.681	0.939	0.999	0.758	1	0.652	0.28	0.675	0.799	0.99	–
CN(CCO)CC[C@H](CSc1ccccc1)Nc1ccc(S(=O)(=O)NC(=O)c2ccc(N3CCC([C@@H](O)c4ccccc4-c4ccc(Cl)cc4)CC3)cc2)cc1S(=O)(=O)C(F)(F)F [AZD4320] + C=CCn1c(=O)c2cnc(Nc3ccc(N4CCN(C)CC4)cc3)nc2n1-c1cccc(C(C)(C)O)n1 [AZD1775] (first compound max 1 µM, partner max 1 µM)	0.449	0.189	0.563	0.866	0.757	0.559	–	0.67	0.457	0.716	0.999	1	0.663	0.935	0.237	0.141	0.656	0.708	1	0.979
COc1nnc2ccc(N3CCC(c4ccc(OCCN5CCN(C)C(=O)[C@H]5C)cc4)CC3)nn12 [AZD5153] + CN(CC[C@H](CSC1=CC=CC=C1)NC2=C(C=C(C=C2)S(=O)(=O)NC(=O)C3=CC=C(C=C3)N4CCC(CC4)[C@H](C5=CC=CC=C5C6=CC=C(C=C6)Cl)O)S(=O)(=O)C(F)(F)F)CCO [AZD4320] (first compound max 1 µM, 7x7, partner max 1 µM)	0.323	0.299	0.251	–	–	–	0.933	–	0.369	–	–	–	–	–	–	–	0.424	0.746	–	0.551
Cc1c2c(nn1C)CSCc1cc(n(C)n1)CSc1cc(c3ccccc3c1)OCCCc1c(C(=O)O)n(C)c3c-2c(Cl)ccc13 [AZD5991] + Cc1cc2ncnn2cc1Nc1ncc2c(n1)n(C1CCOCC1)c(=O)n2C [AZD7648] (first compound max 1 µM, 7x7, partner max 10 µM)	0.41	0.17	0.515	0.319	0.218	0.267	0.29	0.708	–	0.333	0.458	0.967	0.356	0.682	0.348	0.291	0.131	0.988	0.471	0.172
CN(CCO)CC[C@H](CSc1ccccc1)Nc1ccc(S(=O)(=O)NC(=O)c2ccc(N3CCC([C@@H](O)c4ccccc4-c4ccc(Cl)cc4)CC3)cc2)cc1S(=O)(=O)C(F)(F)F [AZD4320] + C[C@@H](Nc1cc(F)cc(F)c1)c1cc(C(=O)N(C)C)cc2c(=O)cc(N3CCOCC3)oc12 [AZD8186] (first compound max 1 µM, 7x7, partner max 3 µM)	0.342	0.375	0.623	0.708	0.388	0.799	0.719	0.349	0.742	0.808	0.916	1	0.636	0.991	0.397	0.271	0.332	0.649	0.997	–
